≈ marks a conversion by molar mass, not a printed value.
Columns and labels:
Experiment in all cases: ≥ marks a high value that may be exact or a test limit, other limits are often not marked, values filed in µg/mL are converted to µM
[1] = tested on: Staphylococcus aureus ATCC 2592
[2] = tested on: Pseudomonas fluorescens ATCC 13525
[3] = tested on: Bacillus subtilis ATCC 6633
[4] = tested on: Candida albicans ATCC 2002
[5] = tested on: Streptococcus pyogenes KCTC 3096
[6] = tested on: Staphylococcus aureus KCTC 1621
[7] = tested on: Salmonella typhimurium KCTC 1926
[8] = tested on: Escherichia coli KCTC 1682
[9] = tested on: Pseudomonas aeruginosa KCTC 1637
[10] = tested on: Candida albicans TIMM 1768
[11] = tested on: Aspergillus fumigatus KCTC 4165
[12] = tested on: Bacillus subtilis KCTC 1918
[13] = tested on: Pseudomonas aeruginosa ATCC 9027
[14] = tested on: Escherichia coli ATCC 25922
[15] = tested on: Staphylococcus epidermidis ATCC 12222
[16] = tested on: Staphylococcus aureus ATCC 29737
[17] = tested on: Bacillus subtilis ATCC 23857
[18] = tested on: Candida albicans ATCC 10231
[19] = tested on: Klebsiella aerogenes ATCC 13048
[20] = tested on: Streptococcus salivarius K12
[21] = tested on: Streptococcus sanguinis ATCC 10556
[22] = tested on: Streptococcus gordonii ATCC 10558
[23] = tested on: Streptococcus gordonii DL1
[24] = tested on: Streptococcus mutans ATCC 104495
[25] = tested on: Streptococcus mutans UA140
Streptococcus mutans T8 = tested on: Streptococcus mutans T8
[26] = tested on: Streptococcus mutans comD
[27] = tested on: Streptococcus sanguinis NY101
[28] = tested on: Streptococcus mutans UA159
[29] = tested on: Streptococcus mutans ATCC 25175
Staphylococcus aureus = tested on: Staphylococcus aureus
[30] = tested on: Candida albicans ATCC 36232
[31] = tested on: Staphylococcus epidermidis ATCC 12228
[32] = tested on: Escherichia coli ATCC 2592
[33] = tested on: Staphylococcus aureus ATCC 6538
[34] = tested on: Micrococcus luteus ATCC 9341
[35] = tested on: Corynebacterium diphtheriae ATCC 8024
[36] = tested on: Shigella flexneri ATCC 203

`CC[C@H](C)[C@H](NC(=O)[C@H](C)NC(=O)[C@@H](NC(=O)[C@@H]1CCCN1C(=O)[C@H](CC(C)C)NC(=O)[C@@H](NC(=O)[C@H](CC(N)=O)NC(=O)[C@H](C)NC(=O)[C@H](C)NC(=O)[C@@H](NC(=O)[C@H](CCCCN)NC(=O)[C@H](CC(C)C)NC(=O)[C@H](C)NC(=O)[C@@H](NC(=O)CNC(=O)[C@H](Cc1ccccc1)NC(=O)[C@@H](N)Cc1ccccc1)[C@@H](C)O)[C@@H](C)CC)C(C)C)[C@@H](C)O)C(=O)N[C@H]1CSSC[C@@H](C(=O)O)NC(=O)[C@H](CCCCN)NC(=O)[C@H](CCCCN)NC(=O)[C@H](CC(C)C)NC(=O)[C@H]([C@@H](C)CC)NC(=O)[C@H](CCCCN)NC1=O` [FFGTALKIAANVLPTAICKILKKC] showed an MIC [1] of 3.9 µM (≈ 9.99 µg/mL), an MIC [2] of 31.2 µM (≈ 79.9 µg/mL) and an MIC [3] of 2.34 µM (≈ 6 µg/mL). It also gave an MIC [4] of 19.5 µM (≈ 50 µg/mL).
In the case of `CC[C@H](C)[C@H](NC(=O)[C@H](CCCCN)NC(=O)[C@H](CCCCN)NC(=O)[C@H](CC(C)C)NC(=O)[C@H](CCCCN)NC(=O)[C@H](CCC(=O)O)NC(=O)CN)C(=O)NCC(=O)N[C@@H](CCC(N)=O)C(=O)N[C@@H](CCCCN)C(=O)N[C@H](C(=O)N[C@@H](CCCCN)C(=O)N[C@@H](CCCCN)C(=O)N[C@@H](Cc1ccccc1)C(=O)N[C@@H](Cc1ccccc1)C(=O)N[C@@H](CCC(N)=O)C(=O)N[C@@H](CCCCN)C(=O)N[C@@H](CC(C)C)C(=O)O)[C@@H](C)CC` [GEKLKKIGQKIKKFFQKL], the MIC [5] was 25 µM (≈ 54 µg/mL), the MIC [6] was 25 µM (≈ 54 µg/mL) and the MIC [7] was 12.5 µM (≈ 27 µg/mL). For the same compound, the MIC [8] was 25 µM (≈ 54 µg/mL), the MIC [9] was 6.25 µM (≈ 13.5 µg/mL) and the MIC [10] was ≥ 50 µM. It also gave an MIC [11] of 25 µM (≈ 54 µg/mL) and an MIC [12] of 25 µM (≈ 54 µg/mL).
For `CC(C)C[C@H](NC(=O)[C@H](CC(C)C)NC(=O)[C@H](CCCCN)NC(=O)[C@H](CCCCN)NC(=O)[C@H](CC(C)C)NC(=O)[C@H](CC(C)C)NC(=O)[C@H](CCCCN)NC(=O)[C@H](CCCCN)NC(=O)[C@H](CC(C)C)NC(=O)[C@@H](N)CC(C)C)C(=O)N[C@@H](CCCCN)C(=O)N[C@@H](CCCCN)C(N)=O` [LLKKLLKKLLKK], the MIC [13] was 43 µM (≈ 63 µg/mL), the MIC [14] was > 341 µM and the MIC [15] was ≥ 43 µM. The MIC [16] was ≥ 341 µM, the MIC [17] was 21.4 µM (≈ 31.3 µg/mL) and the MIC [18] was 85.3 µM (≈ 125 µg/mL). The MIC [19] was ≥ 341 µM.
`CC(C)C[C@H](NC(=O)[C@H](C)NC(=O)[C@H](CCC(N)=O)NC(=O)[C@@H](NC(=O)[C@H](Cc1ccccc1)NC(=O)[C@H](CO)NC(=O)[C@H](CCCN=C(N)N)NC(=O)[C@H](CC(N)=O)NC(=O)[C@H](Cc1ccccc1)NC(=O)[C@H](CC(C)C)NC(=O)[C@H](CCCN=C(N)N)NC(=O)[C@H](Cc1ccccc1)NC(=O)[C@H](Cc1ccccc1)NC(=O)[C@@H](N)[C@@H](C)O)[C@@H](C)O)C(=O)NCC(=O)N[C@@H](CCCCN)C(=O)O` [TFFRLFNRSFTQALGK] was tested, and the MIC [20] was ≥ 64 µM, the MIC [21] was ≥ 64 µM and the MIC [22] was ≥ 64 µM. For the same compound, the MIC [23] was ≥ 60 µM, the MIC [24] was ≥ 64 µM and the MIC [25] was ≥ 64 µM. For the same compound, the MIC (Streptococcus mutans T8) was ≥ 60 µM, the MIC [26] was ≥ 60 µM and the MIC [27] was ≥ 60 µM. For the same compound, the MIC [28] was ≥ 60 µM and the MIC [29] was ≥ 60 µM.
For `CC[C@H](C)[C@H](NC(=O)[C@H](CC(=O)O)NC(=O)[C@H](CS)NC(=O)[C@@H](NC(=O)[C@@H](N)C(C)C)[C@@H](C)O)C(=O)N[C@@H](CC(C)C)C(=O)N[C@@H](CO)C(=O)N[C@H](C(=O)N[C@@H](CCC(=O)O)C(=O)N[C@@H](C)C(=O)N[C@@H](CCCCN)C(=O)NCC(=O)N[C@H](C(=O)N[C@@H](CCCCN)C(=O)N[C@@H](CC(C)C)C(N)=O)C(C)C)C(C)C` [VTCDILSVEAKGVKL], the MIC [13] was > 63.5 µM, the MIC (Staphylococcus aureus) was > 63.5 µM and the MIC [30] was ≥ 63.5 µM. The MIC [31] was > 63.5 µM, the MIC [32] was ≥ 63.5 µM and the MIC [3] was ≥ 63.5 µM. The MIC [33] was > 63.5 µM, the MIC [34] was ≥ 63.5 µM and the MIC [35] was ≥ 63.5 µM. For the same compound, the MIC [36] was ≥ 63.5 µM.
